From ChEMBL document CHEMBL1201862, “PubChem BioAssay data set” (2004) come the findings set out here.

SMILES strings stand for the structures. Active and inactive are the calls of the source. Where only a bound is given, the exact number is not on record here.

Test [1] concerns the target T1, Protein RecA (Mycobacterium tuberculosis, UniProt P9WHJ3).
T1 sequence (P9WHJ3 whole entry): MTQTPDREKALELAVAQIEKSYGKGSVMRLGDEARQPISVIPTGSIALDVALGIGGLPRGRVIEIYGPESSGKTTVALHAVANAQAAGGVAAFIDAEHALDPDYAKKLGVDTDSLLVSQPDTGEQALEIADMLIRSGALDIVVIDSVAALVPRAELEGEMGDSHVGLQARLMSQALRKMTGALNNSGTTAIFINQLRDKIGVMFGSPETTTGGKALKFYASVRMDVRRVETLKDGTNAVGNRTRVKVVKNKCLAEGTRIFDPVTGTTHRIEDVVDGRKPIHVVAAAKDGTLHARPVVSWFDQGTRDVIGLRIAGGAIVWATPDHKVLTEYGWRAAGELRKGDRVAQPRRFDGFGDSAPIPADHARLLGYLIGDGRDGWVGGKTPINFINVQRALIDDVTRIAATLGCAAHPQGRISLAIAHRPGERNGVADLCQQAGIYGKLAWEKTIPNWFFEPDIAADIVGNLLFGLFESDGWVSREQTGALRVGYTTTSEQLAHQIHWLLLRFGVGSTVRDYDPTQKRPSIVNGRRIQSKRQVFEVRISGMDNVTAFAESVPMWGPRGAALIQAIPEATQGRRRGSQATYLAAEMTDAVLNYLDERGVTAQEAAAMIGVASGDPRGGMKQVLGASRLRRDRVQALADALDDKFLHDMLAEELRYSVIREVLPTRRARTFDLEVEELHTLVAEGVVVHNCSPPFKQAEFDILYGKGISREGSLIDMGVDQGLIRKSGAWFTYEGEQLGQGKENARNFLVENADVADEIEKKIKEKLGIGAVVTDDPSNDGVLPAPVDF
Put plainly: Fluorescence Cell-Free Homogeneous Dose Retest to Identify Inhibitors of RecA-Intein Splicing Activity. [Related pubchem assays (depositor defined):AID2097, AID2223, AID489010, AID492950]. The class given is functional.

In test [2] the target is T2, Ubiquitin-conjugating enzyme E2 N (Homo sapiens, UniProt P61088).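 Note: Dose-response confirmation in a TR-FRET assay detecting UBC13-driven polyubiquitin chain formation, inhibition measured.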
T2 sequence (P61088 whole entry): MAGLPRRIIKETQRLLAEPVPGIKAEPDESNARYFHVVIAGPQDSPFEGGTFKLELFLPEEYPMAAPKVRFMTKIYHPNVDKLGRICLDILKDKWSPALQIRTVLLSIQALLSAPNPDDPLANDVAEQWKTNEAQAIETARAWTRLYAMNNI
It is filed as functional.

The target of test [3] is T3, Caspase-7 (Homo sapiens, UniProt P55210).
T3 sequence (P55210 whole entry): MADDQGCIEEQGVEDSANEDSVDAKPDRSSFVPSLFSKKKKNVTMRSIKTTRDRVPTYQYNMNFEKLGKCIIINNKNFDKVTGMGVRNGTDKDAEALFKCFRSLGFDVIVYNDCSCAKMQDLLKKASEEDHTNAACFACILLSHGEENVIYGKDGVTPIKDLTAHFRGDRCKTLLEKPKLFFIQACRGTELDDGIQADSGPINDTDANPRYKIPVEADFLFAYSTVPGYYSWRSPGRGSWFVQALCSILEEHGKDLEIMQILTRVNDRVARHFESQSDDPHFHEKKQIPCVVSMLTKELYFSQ
Put plainly: caspase-7 enzyme inhibition, selectivity check – biochemical, DEVD-R110 fluorescence, cherry-pick, selectivity assay for caspase-6 inhibitor project, dose response (AID 743295). The class given is functional.

By EC50 is commonly meant the concentration at which the effect is half-maximal. In general, IC50 refers to the point on the concentration scale where inhibition reaches its midpoint. `CCCCCCCCCCOC(=O)C[n+]1c(COc2ccccc2OC)n(C)c2ccccc21`: in test [1], the concentration giving a half-maximal response (EC50) was 8.91 µM (active). Moreover, the IC50 in test [2] is 15.6 µM (active).
The term AC50 denotes the concentration at which the activity in the assay is half-maximal. Turning to `O=c1ccc2c(-c3ccccc3S(=O)(=O)O)c3ccc(O)c(O)c3oc-2c1O` [PYROGALLOL RED], in test [3], the AC50 is > 70 µM (inactive).
